According to PubChem BioAssay AID2423 (Broad Institute, 2010):
Records with an inconclusive call do not appear. The source made the active and inactive calls. No rule for the calls is given here.

Test system: C. albicans CaCi-8 + fluconazole, Alamar Blue growth, 48 h
Assay: resistant C. albicans growth inhibition with fluconazole, dose response, CaCi-8 strain, Alamar Blue fluorescence (AID 2423)

SMILES | EC50
CSc1nc(Cl)c(C#N)c(-c2ccc(C)cc2)n1 | 2840 nM
O=C(/C(=N/N=C/c1ccc(O)c(O)c1O)c1ccccc1)c1ccccc1 | 2300 nM
COc1ccc2c(c1OC)C(=O)N1N=C(c3ccc(O)cc3)CC21 (stereo unspecified) | > 15000 nM (inactive)
CSC(=S)NCc1cccnc1 | > 16000 nM (inactive)
CCOC(=O)c1ccc(NC(=O)Cn2ncc(Cl)c(Cl)c2=O)cc1 | 894 nM
CCOC(=O)N1CCN(Cc2cc(Cl)c3cccnc3c2O)CC1 | 1910 nM
N#C/C(C(N)=O)=c1/ccc2c(c1)N1C3=C(CCCC3)CC3CCCCC31N=2 (stereo unspecified) | 3120 nM
Nc1nonc1-n1nnc(C(=O)N/N=C/c2cc(Br)ccc2O)c1CNc1ccccc1 | 634 nM
CC12CCC(C(=O)N(NC(=O)c3ccccc3O)C1=O)C2(C)C (stereo unspecified) | 13900 nM
N#C/C(=C\c1ccc(O)c(O)c1)C(=O)Nc1cccc2ncccc12 | > 15000 nM (inactive)
O=Nc1c(O)n(Cc2cccc(C(F)(F)F)c2)c2ccccc12 | 932 nM
COCCNC(=O)C(c1ccc(C)o1)N(CCOC)C(=O)Cn1nnc2ccccc21 (stereo unspecified) | > 15000 nM (inactive)
O=C(O)CSc1nc(-c2ccc(Cl)cc2)nc2c1oc1ccccc12 | 1510 nM
CC(C)(C)c1ccc(SCC(N)=O)cc1 | > 15000 nM (inactive)
COCCn1c(=O)[nH]c(=O)c2cc(C(=O)c3cc(Cl)ccc3O)cnc21 | 1280 nM
CCOC(=O)N1CCN(Cc2ccc(O)c3ncccc23)CC1 | 12500 nM
Cc1ccc(NC(=O)c2sc3nc(N)c(C#N)cc3c2N)cc1 | 625 nM
Cc1ccc(C)c(NC(=S)NNC(=O)c2csc(C(C)C)c2)c1 | 1210 nM
COc1ccccc1N=Nc1ccc(O)c2ncccc12 | 871 nM

SMILES | EC50
Cc1cc(-c2cc(C(=O)O)c3ccccc3n2)c(C)s1 | 2270 nM
Brc1ccc(CSc2nnc(-c3cnccn3)n2Cc2ccco2)cc1 | 2010 nM
O=C(NC1CCCCC1)c1cc([N+](=O)[O-])[nH]n1 | 1120 nM
COc1ccc(C[C@H]2NC[C@H](O)[C@H]2OC(C)=O)cc1 | 1480 nM
CCCc1cc(=O)[nH]c(SCC(=O)Nc2ccc(Br)cc2Br)n1 | 2590 nM
COc1cccc(C(=O)Nc2nnc(-c3ccc(F)cc3)o2)c1 | 1690 nM
CCn1c(Sc2nc(C)nc3scc(-c4cccs4)c23)n[nH]c1=O | 703 nM
O=C(Oc1c(Cl)cc(Cl)c2cccnc12)N1CCOCC1 | > 15000 nM (inactive)
Cc1n[nH]c(=S)n(NC(=O)CC(=O)Nn2c(=S)[nH]nc(C)c2=O)c1=O | < 120 nM
CCCC(=O)NC(c1ccc(N(C)C)cc1)c1ccc2cccnc2c1O (stereo unspecified) | 627 nM
O=C(/C=C/c1cccc(Cl)c1)c1nc2ccccc2[nH]1 | 2580 nM
CCc1ccc2oc(-c3ccc(OC)cc3)cc(=Nc3c(C)n(C)n(-c4ccccc4)c3=O)c2c1 | 1540 nM
C/C(=N\NC(=O)C1CCCC1)c1ccc(Cl)c(Cl)c1 | > 15000 nM (inactive)
CC[n+]1c(/C=C2\Sc3ccccc3N2C)ccc2cccc(C)c21 | < 120 nM
CC(Oc1cc2oc(=O)c3c(c2cc1Cl)CCCC3)C(=O)NCc1ccncc1 (stereo unspecified) | 6600 nM
CN(/C(=N/S(=O)(=O)c1cccs1)c1ccccc1)c1ccc(O)cc1 | > 15000 nM (inactive)
O=C(NC(Cc1ccccc1)C(=O)NCc1ccccn1)c1ccco1 (stereo unspecified) | > 15000 nM (inactive)
Cc1ccc(C(=O)CC(=O)c2ccc(C(C)(C)C)cc2)cc1 | 6220 nM
O=C(O)CCCCCN1C(=O)/C(=C\c2ccncc2)SC1=S | 898 nM

SMILES | EC50
O=C(Nc1cccc(Cl)c1)Nc1nccs1 | 146 nM
COc1ccc(-n2nc(C(=O)NCC(=O)N3CCN(c4ccc(F)cc4)CC3)c3ccccc3c2=O)c(OC)c1 | 773 nM
CCn1c(C)nc2cc(C(=O)NNC(=S)Nc3ccc(Cl)cc3Cl)ccc21 | 990 nM
Clc1ccccc1C(c1ccccc1)(c1ccccc1)n1ccnc1 | 133 nM
Cc1ccc2ccc3ccc(C)nc3c2n1 | 999 nM
Cc1ccc(C)c(-c2nnc(NC(=O)c3ccco3)o2)c1 | 957 nM
CCNc1nc(NC(C)C)nc(NC(C)(C)C)n1 | 1400 nM
COc1ccc(-c2nnc(NC(=O)c3cc(Cl)ccc3Cl)o2)cc1 | 1120 nM
CC(C)(C)C(=O)NC(=S)NNC(=O)C(c1ccccc1)c1ccccc1 | 2160 nM
CCCCC(=O)NNC(=S)NC(=O)C(c1ccccc1)c1ccccc1 | 1720 nM
CC(C)CCNC(=O)C(c1ccco1)N(Cc1ccc(F)cc1)C(=O)c1snc(C(N)=O)c1N (stereo unspecified) | 15800 nM
CCn1c(=S)[nH]c2scc(-c3cccs3)c2c1=O | > 16000 nM (inactive)
O=C(Nc1nnc(SCc2ccc(Cl)cc2)s1)c1cnccn1 | 1550 nM
CCOc1cc(/C=C2\SC(=S)N(NS(=O)(=O)c3ccccc3)C2=O)ccc1O | 2020 nM
CCCCc1c(O)nc(SCC(=O)Nc2cccc3ccccc23)n(-c2ccccc2OC)c1=O | 7770 nM
CCOc1cc(/C=N/NC(=O)c2cccnc2)ccc1OCC(N)=O | > 15000 nM (inactive)
COc1ccc(C2c3ccc4ccccc4c3Oc3ncn(CCN4CCOCC4)c(=N)c32)cc1 (stereo unspecified) | 1180 nM
CN=c1scc(-c2cccs2)n1/N=C/c1ccc(O)c(O)c1O | 14500 nM
